Data: US20180000794A1, “COMPOSITION FOR PREVENTION OR TREATMENT OF BRONCHIAL ASTHMA COMPRISING PKR INHIBITOR AS ACTIVE INGREDIENT” (INDUSTRIAL COOPERATION FOUNDATION CHONBUK NATIONAL …, priority 2015, published 2018)

Key:
Type in all cases: in vivo, mouse
[1] = tested on: IL-4, IL-5, IL-13, IL-17, KC; assay: Cytokines and chemokines in lung tissues by Western blotting, mice with neutrophilic severe asthma; conditions: Western blotting of lung tissue proteins; OVA+LPS-induced asthma; FIGS. 4A to 4E
Source text: (§1) 8-week old female C57BL/6 mice were purchased from Orient Bio (Sungnam, Korea) and used as experimental animals. Experimental groups were divided into 4 groups and 5 C57BL/6 mice were assigned to each group. Animals in one experimental group were inhaled with saline and treated with vehicle. Animals in the other three experimental groups were sensitized with ovalbumin (OVA) and lipopolysaccharide (LPS), followed by inhalation of ovalbumin to induce asthma. Animals with induced asthma in one experimental group were treated with vehicle 1 hour before the first inhalation of ovalbumin and 6 hours after the last inhalation of ovalbumin. […]
Quantitation of cytokines and chemokines was confirmed by Western blotting of the proteins in lung tissues. […] Then, the samples were loaded on SDS-PAGE gel and quantitated using an anti-IL-4 antibody (Serotec, UK) against IL-4, an anti-IL-5 antibody (SantaCruz Biotechnology, USA) against IL-5, anti-IL-13 and anti-IL-17 antibodies (R&D Systems, USA) against IL-13 and IL-17, and an anti-KC antibody against keratinocyte-induced chemokine (KC) (BioVision, USA), and the results are shown in FIGS. 4A to 4E.

[2] = tested on: mice with neutrophilic severe asthma; assay: Bronchial hyperresponsiveness (Rrs) to aerosol methacholine in mice with neutrophilic severe asthma; conditions: methacholine 5.0 to 50 mg/ml by nebulizer; compared to the group treated with vehicle only; FIG. 3
Source text: as §1
In order to identify the effects of the PKR inhibitor of the present invention on bronchial hyperresponsiveness in mouse models with neutrophilic severe asthma, aerosol methacholine was administered into the airways of mice, and then the changes in airway function were measured. […] At the same time, the mice were administered with methacholine through the ventilator while gradually increasing the dose from 5.0 mg/ml to 50 mg/ml using a nebulizer, and the bronchial hyperresponsiveness (Rrs) was continuously measured. The bronchial hyperresponsiveness was assessed as a percentage of the basal value when the maximum of Rrs values measured at each methacholine concentration was administered to saline control, and the results are shown in FIG. 3.

[3] = tested on: mice with neutrophilic severe asthma; assay: Peribronchitis and perivascular inflammation in lung tissues (H&E histology) of mice with neutrophilic severe asthma; conditions: C57BL/6 mice, OVA+LPS-induced asthma; H&E stained lung sections, optical microscope 20×; FIG. 2
Source text: as §1, with “ovalbumin. Animals in the other two experimental groups were intraperitoneally administered with 60 μg/kg and […] of the PKR inhibitor [6,8-Dihydro-8-(1H-imidazol-5-ylmethylene)-7H-pyrrolo[2,3-g]benzothiazol-7-one] a total of two times, 1 hour before the first inhalation of ovalbumin and 6 hours after the last inhalation of ovalbumin.” for “ovalbumin.”

O=C1Nc2ccc3ncsc3c2/C1=C/c1c[nH]cn1 [PKR inhibitor, 6,8-Dihydro-8-(1H-imidazol-5-ylmethylene)-7H-pyrrolo[2,3-g]benzothiazol-7-one]
cytokines and chemokines in lung tissues (IL-4, IL-5, IL-13, IL-17, KC) [1]: reduced
Rrs values (bronchial hyperresponsiveness) [2]: significantly reduced
airway resistance dose response curves [2]: shifted to the right
level of airway inflammation in lung tissues [3]: significantly reduced
